Measurements: ChEMBL document CHEMBL1147598, “1-(2-Naphthyl)-1H-pyrazole-5-carboxylamides as potent factor Xa inhibitors. Part 3: Design, synthesis and SAR of orally bioavailable benzamidine-P4 inhibitors” (Bioorg Med Chem Lett, 2004)

Columns and labels:
Coagulation factor X [1] = biological target: T1, Coagulation factor X (Homo sapiens, UniProt P00742); assay: In vitro inhibitory activity against human coagulation factor X
[2] = In vitro anticoagulant potency measured in human plasma by thrombin generation (TG) assay expressed as 2 x TG; assay type: functional
Coagulation factor X [3] = biological target: T1, Coagulation factor X; assay: Binding affinity for human Coagulation factor X
Prothrombin = Prothrombin (Homo sapiens, UniProt P00734); assay: Inhibitory activity of compound against thrombin
Serine protease 1 = Serine protease 1 (Homo sapiens, UniProt P07477); assay: Inhibitory activity of compound against trypsin
Oryctolagus cuniculus [4] = assay: In vivo inhibition of thrombus accretion at a plasma level of 3.7 […] in the rabbit deep vein thrombosis (DVT) model; assay type: functional
[5] = (§1) Volume of distribution in rat; assay type: ADME, organism-based; settings: in vivo
[6] = biological target: Plasminogen (Homo sapiens) (UniProt P00747); assay: Inhibitory activity of compound against plasmin
[7] = (§2) Clearance rate in rat; assay type: ADME, organism-based; settings: in vivo
[8] = Bioavailability in rat; assay type: ADME, organism-based; settings: in vivo
[9] = (§3) Half-life determined in rat; assay type: ADME, organism-based; settings: in vivo
[10] = biological target: Vitamin K-dependent protein C (Homo sapiens, UniProt P04070); assay: Inhibitory activity against activated protein C was determined
[11] = biological target: Tissue-type plasminogen activator (Homo sapiens, UniProt P00750); assay: Inhibitory activity of compound against tissue type plasminogen activator
Oryctolagus cuniculus [12] = assay: In vivo inhibition of thrombus accretion at a plasma level of 4.5 […] in the rabbit deep vein thrombosis (DVT) model; assay type: functional
Kallikrein-1 = Kallikrein-1 (Homo sapiens, UniProt P06870); assay: Inhibitory activity of compound against kallikrein
Rattus norvegicus [13] = species on record: Rattus norvegicus; assay: as §1; assay type: ADME, organism-based; settings: in vivo
Rattus norvegicus [14] = species on record: Rattus norvegicus; assay: as §2; assay type: ADME, organism-based; settings: in vivo
Rattus norvegicus [15] = species on record: Rattus norvegicus; assay: as §3; assay type: ADME, organism-based; settings: in vivo
Oryctolagus cuniculus [16] = assay: In vivo inhibition of thrombus accretion at a plasma level of 3.9 […] in the rabbit deep vein thrombosis (DVT) model; assay type: functional
Oryctolagus cuniculus [17] = assay: In vivo inhibition of thrombus accretion at a plasma level of 4.6 […] in the rabbit deep vein thrombosis (DVT) model; assay type: functional

Sequence of Vitamin K-dependent protein C (P04070 43-197 limits assumed): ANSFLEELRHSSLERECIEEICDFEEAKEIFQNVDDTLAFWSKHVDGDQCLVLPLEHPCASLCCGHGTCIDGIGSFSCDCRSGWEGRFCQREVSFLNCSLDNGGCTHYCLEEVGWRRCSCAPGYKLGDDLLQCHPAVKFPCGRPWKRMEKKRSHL
Sequence of Vitamin K-dependent protein C (P04070 212-461 limits assumed): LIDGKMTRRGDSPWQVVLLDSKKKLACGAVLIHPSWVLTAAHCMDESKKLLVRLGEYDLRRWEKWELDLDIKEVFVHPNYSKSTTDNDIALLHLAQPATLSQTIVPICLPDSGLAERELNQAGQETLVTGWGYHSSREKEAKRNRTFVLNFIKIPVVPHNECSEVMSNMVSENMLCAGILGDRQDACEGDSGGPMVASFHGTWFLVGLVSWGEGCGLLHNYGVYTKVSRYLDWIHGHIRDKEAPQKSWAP
Sequence of Plasminogen (Homo sapiens) (P00747 whole entry, looked up): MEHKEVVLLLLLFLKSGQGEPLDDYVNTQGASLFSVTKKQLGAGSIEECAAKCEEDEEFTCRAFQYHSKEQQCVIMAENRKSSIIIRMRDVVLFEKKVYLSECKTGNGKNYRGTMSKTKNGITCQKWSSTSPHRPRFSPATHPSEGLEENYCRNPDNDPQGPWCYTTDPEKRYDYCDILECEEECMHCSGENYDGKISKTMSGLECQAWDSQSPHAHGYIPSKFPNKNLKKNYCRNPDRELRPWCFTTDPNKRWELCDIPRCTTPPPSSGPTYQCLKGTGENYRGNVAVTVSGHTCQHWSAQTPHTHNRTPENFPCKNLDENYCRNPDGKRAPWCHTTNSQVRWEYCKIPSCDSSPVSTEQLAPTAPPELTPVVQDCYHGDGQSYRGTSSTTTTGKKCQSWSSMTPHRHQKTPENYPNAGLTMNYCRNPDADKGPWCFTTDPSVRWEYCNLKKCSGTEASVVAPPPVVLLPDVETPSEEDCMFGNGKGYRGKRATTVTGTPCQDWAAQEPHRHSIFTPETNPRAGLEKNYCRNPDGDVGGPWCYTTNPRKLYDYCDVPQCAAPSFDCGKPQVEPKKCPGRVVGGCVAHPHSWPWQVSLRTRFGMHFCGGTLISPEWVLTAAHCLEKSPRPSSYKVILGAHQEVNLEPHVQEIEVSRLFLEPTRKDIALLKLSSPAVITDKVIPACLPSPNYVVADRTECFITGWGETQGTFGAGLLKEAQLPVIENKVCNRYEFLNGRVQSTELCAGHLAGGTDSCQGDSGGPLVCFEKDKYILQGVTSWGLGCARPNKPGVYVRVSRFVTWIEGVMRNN
T1 sequence (P00742 41-179 limits assumed): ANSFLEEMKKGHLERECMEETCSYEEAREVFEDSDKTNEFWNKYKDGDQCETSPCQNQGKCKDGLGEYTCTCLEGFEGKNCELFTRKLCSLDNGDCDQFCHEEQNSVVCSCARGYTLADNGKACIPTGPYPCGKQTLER
T1 sequence (P00742 235-488 limits assumed): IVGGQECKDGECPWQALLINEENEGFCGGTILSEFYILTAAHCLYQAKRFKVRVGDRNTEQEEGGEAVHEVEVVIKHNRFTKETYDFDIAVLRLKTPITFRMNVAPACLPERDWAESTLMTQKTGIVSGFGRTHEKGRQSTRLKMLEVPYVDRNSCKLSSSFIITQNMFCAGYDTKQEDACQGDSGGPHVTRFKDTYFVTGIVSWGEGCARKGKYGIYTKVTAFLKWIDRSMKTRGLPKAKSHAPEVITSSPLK
Sequence of Tissue-type plasminogen activator (P00750 whole entry): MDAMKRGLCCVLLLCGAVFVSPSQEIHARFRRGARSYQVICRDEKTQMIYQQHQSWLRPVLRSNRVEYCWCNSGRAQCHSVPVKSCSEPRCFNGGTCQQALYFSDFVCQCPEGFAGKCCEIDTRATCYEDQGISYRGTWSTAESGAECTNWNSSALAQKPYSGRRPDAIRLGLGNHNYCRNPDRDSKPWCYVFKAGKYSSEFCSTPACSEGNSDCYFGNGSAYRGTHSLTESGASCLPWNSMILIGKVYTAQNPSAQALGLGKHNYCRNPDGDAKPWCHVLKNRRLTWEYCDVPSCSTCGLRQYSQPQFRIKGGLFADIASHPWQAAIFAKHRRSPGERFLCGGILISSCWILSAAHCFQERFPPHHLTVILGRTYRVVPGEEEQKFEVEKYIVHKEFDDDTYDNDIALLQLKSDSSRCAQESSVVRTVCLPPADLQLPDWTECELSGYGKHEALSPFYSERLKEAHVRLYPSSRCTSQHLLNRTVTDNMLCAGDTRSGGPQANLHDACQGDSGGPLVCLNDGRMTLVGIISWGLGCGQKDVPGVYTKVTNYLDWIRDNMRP
Sequence of Serine protease 1 (P07477 whole entry): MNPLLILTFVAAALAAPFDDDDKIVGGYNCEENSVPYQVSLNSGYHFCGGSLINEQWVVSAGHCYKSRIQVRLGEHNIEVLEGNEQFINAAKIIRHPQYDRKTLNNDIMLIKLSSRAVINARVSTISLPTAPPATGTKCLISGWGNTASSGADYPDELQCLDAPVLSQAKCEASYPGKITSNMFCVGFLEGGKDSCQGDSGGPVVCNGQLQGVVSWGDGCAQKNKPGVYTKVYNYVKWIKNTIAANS
Sequence of Kallikrein-1 (P06870 whole entry): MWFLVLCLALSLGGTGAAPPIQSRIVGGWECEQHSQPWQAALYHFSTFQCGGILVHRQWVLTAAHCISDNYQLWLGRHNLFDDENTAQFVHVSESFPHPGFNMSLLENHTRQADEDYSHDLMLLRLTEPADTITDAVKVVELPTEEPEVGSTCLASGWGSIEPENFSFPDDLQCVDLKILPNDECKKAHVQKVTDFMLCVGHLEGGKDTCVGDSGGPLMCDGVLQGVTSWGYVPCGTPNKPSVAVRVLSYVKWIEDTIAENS

SMILES | IC50 (Coagulation factor X [1]) [µM] | Activity [2] [µM] | other results
Cc1cc(C(=O)Nc2ccc(C3=NCCN3C)cc2F)n(-c2ccc3cc(Cl)ccc3c2)n1 | 0.008 | 0.91 | Ki (Coagulation factor X [3]): 0.001 µM
Cc1cc(C(=O)Nc2ccc(C(=N)N)cc2F)n(-c2cc3ccccc3cc2F)n1 | 0.777 | – | –
CNC(=N)c1ccc(NC(=O)c2cc(C)nn2-c2cc3ccccc3cc2F)c(F)c1 | 0.114 | – | –
CN(C)C(=N)c1ccc(NC(=O)c2cc(C(F)(F)F)nn2-c2ccc3cc(Cl)ccc3c2)c(F)c1 | 0.001 | 1.8 | Ki (Coagulation factor X [3]): 0.0009 µM
Cc1cc(C(=O)Nc2ccc(C(=N)N(C)C)cc2F)n(-c2cc3ccccc3cc2S(C)(=O)=O)n1 | 0.012 | 0.53 | Ki (Coagulation factor X [3]): 0.0028 µM
COCCN(C)C(=N)c1ccc(NC(=O)c2cc(C)nn2-c2cc3ccccc3cc2F)c(F)c1 | 0.11 | – | –
Cc1cc(C(=O)Nc2ccc(C(=N)N(C)C)s2)n(-c2cc3ccccc3cc2F)n1 | 0.511 | – | –
Cc1cc(C(=O)Nc2ccc(C(=N)N(C)C)cc2F)n(-c2ccc3cc(Cl)ccc3c2)n1 | 0.005 | 0.83 | IC50 (Prothrombin): > 10 µM; IC50 (Serine protease 1): > 10 µM; Inhibition (Oryctolagus cuniculus [4]): 20%; Vd [5]: 82.5 L/kg; IC50 [6]: > 10 µM; clearance [7]: 55.9 mL/min/kg; bioavailability [8]: 13.8%; Ki (Coagulation factor X [3]): 0.0007 µM; half-life [9]: 18 h; IC50 [10]: > 10 µM; IC50 [11]: > 10 µM; Inhibition (Oryctolagus cuniculus [12]): 56%; IC50 (Kallikrein-1): > 10 µM
Cc1cc(C(=O)Nc2ccc(C(=N)N3CCCC3)cc2F)n(-c2ccc3cc(Cl)ccc3c2)n1 | 0.007 | – | –
Cc1cc(C(=O)Nc2ccc(C3=NCCN3C)cc2F)n(-c2cc3ccccc3cc2F)n1 | 0.018 | 1.7 | Vd [5]: 7.6 L/kg; clearance [7]: 49.3 mL/min/kg; bioavailability [8]: 43.9%; Ki (Coagulation factor X [3]): 0.008 µM; half-life [9]: 1.8 h
Cc1cc(C(=O)Nc2ccc(C(=N)N(C)C)cc2F)n(-c2cc3ccccc3cc2F)n1 | – | 1 | IC50 (Prothrombin): > 10 µM; IC50 (Serine protease 1): > 10 µM; Vd (Rattus norvegicus [13]): 49.4 L/kg; IC50 [6]: > 10 µM; CL (Rattus norvegicus [14]): 54.3 mL/min/kg; bioavailability [8]: 24.3%; Ki (Coagulation factor X [3]): 0.0039 µM; T1/2 (Rattus norvegicus [15]): 3.1 h; IC50 [10]: > 10 µM; IC50 [11]: > 10 µM; IC50 (Kallikrein-1): > 10 µM
CCCN(C)C(=N)c1ccc(NC(=O)c2cc(C)nn2-c2cc3ccccc3cc2F)c(F)c1 | 0.034 | – | –
CN(C)C(=N)c1ccc(NC(=O)c2nnnn2-c2ccc3cc(Cl)ccc3c2)c(F)c1 | 0.002 | 2.5 | Ki (Coagulation factor X [3]): 0.0007 µM
CCN(C)C(=N)c1ccc(NC(=O)c2cc(C)nn2-c2cc3ccccc3cc2F)c(F)c1 | 0.022 | – | –
N=C(c1ccc(NC(=O)c2cc(C(F)(F)F)nn2-c2ccc3cc(Cl)ccc3c2)c(F)c1)N1CCCCC1 | 0.004 | – | –
CN(C)C(=N)c1ccc(NC(=O)c2cc(C(F)(F)F)nn2-c2cc3ccccc3cc2F)c(F)c1 | – | 1.4 | Inhibition (Oryctolagus cuniculus [16]): 20%; IC50 (Prothrombin): > 10 µM; IC50 (Serine protease 1): > 10 µM; Vd [5]: 11 L/kg; IC50 [6]: > 10 µM; clearance [7]: 14.7 mL/min/kg; Inhibition (Oryctolagus cuniculus [17]): 51%; bioavailability [8]: 46.9%; half-life [9]: 8.8 h; IC50 [10]: > 10 µM; IC50 [11]: > 10 µM; IC50 (Kallikrein-1): > 10 µM
Cc1cc(C(=O)Nc2cccc(C(=N)N(C)C)c2)n(-c2cc3ccccc3cc2F)n1 | 0.479 | – | –
Cc1cc(C(=O)Nc2cc(C(=N)N(C)C)cs2)n(-c2cc3ccccc3cc2F)n1 | 0.377 | – | –
Cc1cc(C(=O)Nc2ccc(C(=N)N(C)Cc3ccccc3)cc2F)n(-c2cc3ccccc3cc2F)n1 | 0.08 | – | –
Cc1cc(C(=O)Nc2ccc(C3=NCCN3C)cc2F)n(-c2cc3ccccc3cc2S(C)(=O)=O)n1 | 0.014 | 0.78 | Ki (Coagulation factor X [3]): 0.0039 µM
N=C(c1ccc(NC(=O)c2cc(C(F)(F)F)nn2-c2ccc3cc(Cl)ccc3c2)c(F)c1)N1CCCC1 | 0.002 | – | –
CN1CCN=C1c1ccc(NC(=O)c2cc(C(F)(F)F)nn2-c2ccc3cc(Cl)ccc3c2)c(F)c1 | 0.002 | 4.5 | Ki (Coagulation factor X [3]): 0.0012 µM
CN1CCN=C1c1ccc(NC(=O)c2nnnn2-c2ccc3cc(Cl)ccc3c2)c(F)c1 | 0.015 | – | –
Cc1cc(C(=O)Nc2ccc(C(=N)N(C)CCN(C)C)cc2F)n(-c2cc3ccccc3cc2F)n1 | 0.048 | – | –

More lines, main results first:

IC50 (Coagulation factor X [1]) [µM] | SMILES | Activity [2] [µM] | other results
0.007 | Cc1cc(C(=O)Nc2ccc(C(=N)N3CCCCC3)cc2F)n(-c2ccc3cc(Cl)ccc3c2)n1 | – | –
0.007 | N=C(c1ccc(NC(=O)c2nnnn2-c2ccc3cc(Cl)ccc3c2)c(F)c1)N1CCCC1 | – | –
0.11 | CN1CCN=C1c1ccc(NC(=O)c2nnnn2-c2cc3ccccc3cc2F)c(F)c1 | – | –
0.008 | Cc1cc(C(=O)Nc2ccc(C(=N)N3CCCCC3)cc2F)n(-c2cc3ccccc3cc2F)n1 | 1.5 | Ki (Coagulation factor X [3]): 0.0052 µM
0.01 | N=C(c1ccc(NC(=O)c2cc(C(F)(F)F)nn2-c2cc3ccccc3cc2F)c(F)c1)N1CCCC1 | – | –
0.006 | Cc1cc(C(=O)Nc2ccc(C(=N)N3CCCC3)cc2F)n(-c2cc3ccccc3cc2F)n1 | 1.4 | Ki (Coagulation factor X [3]): 0.0041 µM
0.008 | N=C(c1ccc(NC(=O)c2nnnn2-c2ccc3cc(Cl)ccc3c2)c(F)c1)N1CCCCC1 | – | –
0.05 | Cc1cc(C(=O)Nc2ccc(C(=N)N3CCCCCC3)cc2F)n(-c2cc3ccccc3cc2F)n1 | – | –
0.015 | Cc1cc(C(=O)Nc2ccc(C(=N)N3CCCC3)cc2F)n(-c2cc3ccccc3cc2S(C)(=O)=O)n1 | – | –
0.028 | Cc1cc(C(=O)Nc2ccc(C(=N)N3CCCCC3)cc2F)n(-c2cc3ccccc3cc2S(C)(=O)=O)n1 | – | –
0.011 | N=C(c1ccc(NC(=O)c2cc(C(F)(F)F)nn2-c2cc3ccccc3cc2F)c(F)c1)N1CCCCC1 | – | –
0.134 | Cc1cc(C(=O)Nc2ccc(C(=N)N3CCOCC3)cc2F)n(-c2cc3ccccc3cc2F)n1 | – | –
0.024 | N=C(c1ccc(NC(=O)c2nnnn2-c2cc3ccccc3cc2F)c(F)c1)N1CCCC1 | – | –
0.076 | N=C(c1ccc(NC(=O)c2nnnn2-c2cc3ccccc3cc2F)c(F)c1)N1CCCCC1 | – | –
0.016 | CN(C)C(=N)c1ccc(NC(=O)c2nnnn2-c2cc3ccccc3cc2F)c(F)c1 | – | –
0.05 | Cc1cc(C(=O)Nc2ccc(C(=N)N3CCC3)cc2F)n(-c2cc3ccccc3cc2F)n1 | – | –
